Patent US4808586A, “Substituted benzimidazoles and benzothidiazoles having anti-asthmatic and/or anti-inflammatory activities” (American Cyanamid Company, priority 1987, dated 1989)
Read-outs that look alike come from different tables or passages of the source.

Columns and labels:
Neutrophil Lipoxygenase = target: T1, Neutrophil Lipoxygenase (Cavia porcellus, UniProt A0A286X958); assay: Inhibition of neutrophil lipoxygenase (release and biosynthesis of LTB4 and 5-HETE) in guinea pig peritoneal neutrophils; type: cell-based; details: 10 μg/ml, 100 μM arachidonic acid and 20 μM A23187, the lower the percentage, the more active
T1 construct: endogenous in cells; host or cells: guinea pig peritoneal neutrophils
T1 sequence (A0A286X958 1-674): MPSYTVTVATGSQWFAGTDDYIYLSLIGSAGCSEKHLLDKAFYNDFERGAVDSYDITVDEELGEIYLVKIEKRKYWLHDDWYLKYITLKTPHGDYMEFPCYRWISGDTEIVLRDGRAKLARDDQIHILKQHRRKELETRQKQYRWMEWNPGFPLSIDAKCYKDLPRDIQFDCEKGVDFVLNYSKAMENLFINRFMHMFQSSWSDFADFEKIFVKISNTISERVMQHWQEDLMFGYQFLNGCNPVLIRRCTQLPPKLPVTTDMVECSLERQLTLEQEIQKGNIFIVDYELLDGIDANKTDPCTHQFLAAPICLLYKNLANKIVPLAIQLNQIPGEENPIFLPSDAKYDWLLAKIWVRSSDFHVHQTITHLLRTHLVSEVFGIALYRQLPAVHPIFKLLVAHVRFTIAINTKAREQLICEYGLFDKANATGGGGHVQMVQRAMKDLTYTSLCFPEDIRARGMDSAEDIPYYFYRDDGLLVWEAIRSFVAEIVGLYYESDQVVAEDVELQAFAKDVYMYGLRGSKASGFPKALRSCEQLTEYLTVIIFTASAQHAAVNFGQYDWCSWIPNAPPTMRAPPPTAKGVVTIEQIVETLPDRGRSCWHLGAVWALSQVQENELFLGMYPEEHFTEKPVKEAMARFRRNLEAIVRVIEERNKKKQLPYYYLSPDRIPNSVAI
Method: The ability of these compounds to inhibit lipoxygenase activity in terms of the suppression of the release and biosynthesis of leukotriene B4 (LTB4) and 5-hydroxyeicosatetraenoic acid (5-HETE) was measured as follows.
In this assay 3×10^7 peritoneal neutrophils derived from guinea pigs were incubated at 37° C. in Dulbeccos buffer containing 50 mM tris buffer (pH 7.4). Five minutes before the addition of 100 μM arachidonic acid and 20 μM calcium ionophore (A23187), control vehicle or the test compounds were added to the neutrophils at a concentration of 10 μg/ml.
Three minutes after the addition of arachidonic acid and calcium ionophore the total lipid was partitioned into chloroform after adjusting the pH to 3 with citric acid and the addition of equal parts of methanol and chloro-form.
The 5-HETE and LTB4 were resolved by HPLC using a 5 μM, 4×25 cm octadecyl silica solumn (IBM Instruments) with 70-80% methanol in water adjusted to pH 3.0 with acetic acid. As the mobile phase was pumped at 1.0 ml/minute, LTB4 and 5-HETE were detected by absorbance at 270 and 236 nm, respectively.
LTB4 and 5-HETE were quantitated by comparison with the control and results were expressed as a percent of control.

[1] = system: Immunologically Stimulated Human Basophils; assay: Inhibition of histamine release from immunologically stimulated human basophils; type: cell-based; details: 1 h; human basophils challenged with anti-IgE or antigen, 60 minutes at 37° C.; linear regression; active if ED50 ≤48 μM; read-out: ED50 (concentration which causes a 50% inhibition of histamine release)
Method: The novel compounds of this invention have been tested by the procedure of Lichtenstein, L. M. and Osler, A. G., J. Exp. Med., 120, 507-530 (1964), which evaluates the ability of compounds to inhibit mediator (histamine) release from immunologically stimulated human basophils.
Dissolve 140.3 g of sodium chloride, 7.45 g of potassium chloride and 74.5 g of Trizma-Tris Pre-Set, Reagent Grade, pH 7.6, at 25° C. (Sigma Chemical Co.) in sufficient water to give a final volume of 2 liters.
(Sigma Chemical Co.) (30 mg/ml)
Made to 0.75M and 0.5M respectively, with calcium chloride dihydrate and magnesium chloride hexahydrate.
A 10 ml portion of 10X Tris Buffer and 1.0 ml of human albumin are diluted to 100 ml with water.
A 10 ml portion of 10X Tris Buffer, 1.0 ml of human albumin, 0.8 ml of calcium stock and 0.2 ml of magnesium stock are diluted to 100 ml with water.
Behring Diagnostics (Generally used at 10 μg protein/ml final concentration).
Strength 1:100 (w:v) allergenic extract, Hollister-Stier Labs. Generally this is diluted 1:1000 to 1:10,000 (considering the vial as stock).
Intradermal solutions or intramuscular preparations for hyposensitization, Hollister-Stier Labs. The final concentration used is on the order of 1 PNU/ml.
Eighty milliliters of blood is withdrawn from subjects with known histamine release to anti-Ige, rageweed antigen or other specific alergen, using four 20 ml heparainized tubes. This 80 ml of blood is mixed with 20 ml of saline containing 0.6 g of dextrose and 1.2 g of dextran. The blood is allowed to sediment at room temperature in two 50 ml polycarbonate centrifuge tubes until a sharp interface develops between the red cells and plasma (60-90 minutes). The plasma (top) layer from each tube is with-drawn by pipet and transferred to respective 50 ml polycarbonate tubes. The plasma is centrifuged for 8 minutes at 100×G at […]. The supernatant is carefully poured off as completely as possible and the cell button is resuspended in 2-3 ml of Tris-A buffer using a silconized Pasteur pipet. The resuspension is accomplished by drawing the liquid gently in an out of the pipet, with the tip below the liquid, until and even suspension of cells is obtained. Sufficient Tris-A buffer is then added to bring the volume in the tube to about 45 ml and the tube is centrifuged at 110×G for 8 minutes at 4° C. The supernatant is poured off and the cell button is resuspended and centrifuged as described above. The supernatant is poured off and the cell button suspended in 2-3 ml of Tris-ACM buffer to make the final volume sufficient to allow addition to the reaction tubes.
Reaction tubes containing anti-IgE or antigens, either alone or with test compound in a total volume of 0.2 ml are prepared and placed in a 37° C. bath. […]

Row | Compound | remaining activity at 10 µg/mL (Neutrophil Lipoxygenase; read-out: 5-HETE, % of Control) [%] | remaining activity at 10 µg/mL (Neutrophil Lipoxygenase; read-out: LTB4, % of Control) [%] | IC50 [1] [µM]
1 | Oc1ccc(O)c2[nH]c(-c3ccccc3)nc12 [2-Phenyl-1 --H--benzimidazole-4,7-diol, 2-Phenyl-1H-benzimidazole-4,7-diol] | 32.1 | 33.9 | –
2 | O=C1C(Cl)=C(N2CCN(c3nc4ccccc4o3)CC2)C(=O)c2nsnc21 [5-[4-(2-Benzoxazolyl)-1-piperazinyl]-6-chloro-2,1,3-benzothiadiazole-4,7-dione] | 20.8 | 25.8 | –
3 | COc1ccc(OC)c2[nH]c(-c3ccccc3)nc12 [4,7-Dimethoxy-2-phenyl-1H-benzimidazole] | 78.2 | 8 | –
4 | COc1ccc(OC)c2[nH]c(-c3ccc(Cl)cc3)nc12 [2-(4-Chlorophenyl)-4,7-dimethoxy-1H-benzimidazole] | 77 | 87 | –
5 | O=C1C(Cl)=C(N2CCN(c3cccc(C(F)(F)F)c3)CC2)C(=O)c2nsnc21 [5-Chloro-6-6[4-[3-(trifluoromethyl)phenyl]-1-piperazinyl]-2,1,3-benzothiadiazole-4,7-dione] | 15.2 | 14.6 | 9.1
6 | O=CN1CCN(C2=C(Cl)C(=O)c3nsnc3C2=O)CC1 [4-(6-Chloro-4,7-dihydro-4,7-dioxo-2,1,3-benzothiadiazol-5-yl)-1-piperazinecarboxaldehyde] | 64 | 90.8 | –
7 | CCOC(=O)N1CCN(C2=C(Cl)C(=O)c3nsnc3C2=O)CC1 [4-(6-Chloro-4,7-dihydro-4,7-dioxo-2,1,3-benzothiadiazol-5-yl)-1-piperazinecarboxylic acid, ethyl ester] | 40.5 | 39.3 | 1
8 | O=C1C=CC(=O)c2[nH]c(-c3ccc(Cl)cc3)nc21 [2-(4-Chlorophenyl)-1H-benzimidazole-4,7-dione] | – | – | 6.8
9 | Oc1ccc(O)c2[nH]c(-c3ccc(Cl)cc3)nc12 [2-(4-Chlorophenyl)-1H-benzimidazole-4,7-diol] | – | – | 9.7
